In article PMC10910063, “Helical domain of hGBP3 cannot stimulate the second phosphate cleavage of GTP” (The Journal of Biological Chemistry, 2024):

Target: T1, hGBP1^311 (Homo sapiens, UniProt P32455)
T1 construct: gene GBP1; truncated, without the helical domain; purified as previously reported
T1 sequence (P32455 1-311): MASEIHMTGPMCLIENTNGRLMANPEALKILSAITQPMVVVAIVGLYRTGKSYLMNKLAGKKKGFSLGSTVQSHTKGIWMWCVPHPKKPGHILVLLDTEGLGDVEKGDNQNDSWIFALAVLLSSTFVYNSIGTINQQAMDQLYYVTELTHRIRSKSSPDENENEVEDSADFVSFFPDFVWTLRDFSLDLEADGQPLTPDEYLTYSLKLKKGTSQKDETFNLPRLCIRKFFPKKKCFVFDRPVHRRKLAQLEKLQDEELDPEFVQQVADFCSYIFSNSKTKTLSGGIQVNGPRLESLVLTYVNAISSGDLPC
Experiment: radiolabelled [α-32P]GTP, thin-layer chromatography
Format: biochemical
Details: Tris pH 7.5, 5 mM MgCl2, 37 °C

Nc1nc2c(ncn2[C@@H]2O[C@H](COP(=O)(O)OP(=O)(O)OP(=O)(O)O)[C@@H](O)[C@H]2O)c(=O)[nH]1 [GTP]
radiolabelled [α-32P]GTP, thin-layer chromatography: the deletion of the helical domain of hGBP1 significantly reduced GMP production
